Assay results taken from ChEMBL document CHEMBL1141601, “Exploring the molecular basis of action of the passive antiglucocorticoid 21-hydroxy-6,19-epoxyprogesterone” (J Med Chem, 2008).
Active and inactive are the calls of the source.

Legend:
[1] = molecular target: T1, Tyrosine aminotransferase (Homo sapiens) (UniProt P17735); assay: Induction of tyrosine aminotransferase
T1 sequence (whole entry): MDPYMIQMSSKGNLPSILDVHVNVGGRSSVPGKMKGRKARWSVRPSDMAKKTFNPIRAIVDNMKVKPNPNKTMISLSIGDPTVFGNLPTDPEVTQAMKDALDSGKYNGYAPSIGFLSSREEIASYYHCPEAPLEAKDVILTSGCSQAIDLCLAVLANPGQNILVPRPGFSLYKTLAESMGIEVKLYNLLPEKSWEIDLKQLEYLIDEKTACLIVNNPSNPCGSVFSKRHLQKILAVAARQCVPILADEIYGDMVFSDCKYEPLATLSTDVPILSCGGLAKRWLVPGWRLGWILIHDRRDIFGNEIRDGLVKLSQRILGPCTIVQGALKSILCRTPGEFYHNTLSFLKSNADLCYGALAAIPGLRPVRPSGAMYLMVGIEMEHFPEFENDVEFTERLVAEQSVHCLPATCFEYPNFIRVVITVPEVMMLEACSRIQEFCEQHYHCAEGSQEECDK

[2] = molecular target: T2, Glucocorticoid receptor (Homo sapiens) (UniProt P04150); assay: Activity at GR expressed in mouse L929 cells at 10 uM by transactivation assay relative to control; type: cell-based
T2 sequence (whole entry): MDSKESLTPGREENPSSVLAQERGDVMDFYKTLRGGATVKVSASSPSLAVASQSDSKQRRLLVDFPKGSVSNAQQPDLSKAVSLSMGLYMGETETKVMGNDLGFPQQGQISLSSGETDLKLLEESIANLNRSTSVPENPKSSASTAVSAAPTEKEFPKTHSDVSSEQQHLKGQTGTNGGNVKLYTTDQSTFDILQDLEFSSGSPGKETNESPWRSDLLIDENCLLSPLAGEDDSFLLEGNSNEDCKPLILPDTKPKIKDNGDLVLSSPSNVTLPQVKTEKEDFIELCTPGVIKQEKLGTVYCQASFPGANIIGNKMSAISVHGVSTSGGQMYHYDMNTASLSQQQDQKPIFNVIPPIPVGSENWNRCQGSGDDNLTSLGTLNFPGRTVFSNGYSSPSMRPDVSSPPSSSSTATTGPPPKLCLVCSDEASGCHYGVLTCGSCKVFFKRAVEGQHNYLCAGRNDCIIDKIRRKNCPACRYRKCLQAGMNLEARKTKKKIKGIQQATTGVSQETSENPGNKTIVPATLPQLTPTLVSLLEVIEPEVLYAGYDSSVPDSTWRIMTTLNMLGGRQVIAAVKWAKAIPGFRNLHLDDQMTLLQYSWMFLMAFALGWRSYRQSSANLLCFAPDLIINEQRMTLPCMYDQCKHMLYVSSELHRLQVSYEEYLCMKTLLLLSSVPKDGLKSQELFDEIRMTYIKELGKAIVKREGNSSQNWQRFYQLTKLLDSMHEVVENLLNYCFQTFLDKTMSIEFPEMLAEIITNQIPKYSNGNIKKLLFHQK

Liver = assay: Effect on increase in glycogen deposition in rat liver; type: functional, tissue-based

Measured: Activity

C[C@]12CC[C@H]3[C@@H](CC4OC[C@@]35CCC(=O)C=C45)[C@@H]1CC[C@@H]2C(=O)CO
inactive: all assays above
